Data published in patent US9340532B2, “Methods and compositions for inhibiting CNKSR1” (PHUSIS THERAPEUTICS, INC., priority 2012, dated 2016).

Legend:
Format in all cases: cell-based
[1] = test system: wt-KRAS NSCLC cell lines; assay: Screening against NSCLC cell line panel, wt-KRAS lines; conditions: Table 6, mean of 3 wt-KRAS lines; read-out: NSCL cell line cytotoxicity IC50 wt-KRAS
Method: The isogenic KRAS lines harboring G12D, G12C, and G12V were obtained from Horizon Discovery labs on a one year lease. These cells were cultured in McCoys media with 10% FBS to 80% confluency. Cells were then released from flasks via trypsinization and plated into 96-well plates at an initial density range of 2000 cells per well. Cells were allowed 24 hours to attach, and then the agents were added to the culture media at a range of concentrations from 0-100 μM. Cells were incubated for 72 hours with the drugs, and then viability was assessed using an MTS viability assay. Cells were exposed to MTS reagent (Promega) dissolved in PBS (Hyclone) at a concentration of 200 μL reagent/mL media for 2 hours. Absorbance was then read at 490 nm, and viability was expressed as a percentage normalized between the negative control (no cells plated) and the condition of cells with no drug added (100% viability) normalized as the upper limit of viability.
Our panel of 30 cell lines and an extensive characterization were obtained from Dr. John Minna (UTSW). All cell lines were cultured in RPMI 1640 with 10% FBS. Cells were treated with concentrations of agents at concentrations 0.01 to 50 μM and evaluated as described above. IC50's were determined using Excelfit.

[2] = test system: H1373 (KRAS mutant cell line); assay: Proliferation Assay H1373; conditions: Homo sapiens, NCI-H1373, N = 2 experiments
Outline: (§1)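 Cells plated 2000 per well, allowed 24 h to attach, then exposed 72 h to agents (0-100 μM for isogenic lines; 0.01 to 50 μM for the RPMI 1640/10% FBS-cultured 30-line NSCLC panel). MTS read at 490 nm after 2 h, normalized to no-cell and no-drug controls; IC50 from curve fitting.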

[3] = test system: H226 (KRAS wildtype cell line); assay: Proliferation Assay H226; conditions: Homo sapiens, NCI-H226, n = 1
Outline: as §1

[4] = target: T1, membrane colocalisation of CNKSR1 and mutant-KRas (Homo sapiens, UniProt Q969H4); assay: Confocal imaging of CNKSR1 / mutant KRas colocalisation; conditions: FIG. 12
T1 construct: fluorescent protein (GFP or mRFP); expressed in transfected cells; host or cells: HEK293T
T1 sequence (Q969H4 1-720): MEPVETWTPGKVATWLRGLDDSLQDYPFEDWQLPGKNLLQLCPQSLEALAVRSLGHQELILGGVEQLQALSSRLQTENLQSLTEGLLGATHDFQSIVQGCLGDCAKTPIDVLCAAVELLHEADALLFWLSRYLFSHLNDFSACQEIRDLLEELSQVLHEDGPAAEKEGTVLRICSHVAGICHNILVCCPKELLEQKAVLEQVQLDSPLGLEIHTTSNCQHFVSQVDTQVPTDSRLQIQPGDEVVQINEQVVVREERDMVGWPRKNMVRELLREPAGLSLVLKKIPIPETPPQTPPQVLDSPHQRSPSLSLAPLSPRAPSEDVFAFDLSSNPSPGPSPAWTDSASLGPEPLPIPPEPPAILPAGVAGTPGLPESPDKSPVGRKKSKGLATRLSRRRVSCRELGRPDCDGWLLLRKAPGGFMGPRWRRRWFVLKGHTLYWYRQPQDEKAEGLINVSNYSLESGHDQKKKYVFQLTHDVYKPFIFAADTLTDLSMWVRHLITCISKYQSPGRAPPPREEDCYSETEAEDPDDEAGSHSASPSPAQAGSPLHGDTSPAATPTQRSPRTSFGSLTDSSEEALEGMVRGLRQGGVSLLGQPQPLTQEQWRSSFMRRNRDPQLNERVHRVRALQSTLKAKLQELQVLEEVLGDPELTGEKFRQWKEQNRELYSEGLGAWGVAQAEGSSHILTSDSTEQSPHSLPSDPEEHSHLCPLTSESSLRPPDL
Method: HEK293T cells were co-transfected with CNK and either wild type or G12D mutant KRAS. Twenty-four hours post-transfection, cells were seeded on glass coverslips and allowed to grow a further 24 h and then serum deprived overnight. Cells were fixed with 4% (w/v) paraformaldehyde pH 8.0 for 20 min at room temperature. Following 6-7 washes with PBS (pH 8.0) the coverslip was mounted onto a slide with mounting medium (0.1% p-phenylenediamine/75% glycerol in PBS at pH 7.5-8.0). Confocal laser scanning microscopy was performed with a Leica SP5 confocal microscope system with 63× oil-immersion objective (numerical aperture NA=1.4), a line scan speed of 600 Hz, with image size of 1024×1024 pixels. GFP was excited with an argon-visible light laser tuned to 488 nm, mRFP were excited with a […] tuned to 543 nm GFP and RFP fluorescence emissions were collected using a photomultiplier tube via 514/10 nm and 595/10 nm band selections respectively.

[5] = target: T2, direct binding of CNKSR1 to mut-KRAS (Homo sapiens, UniProt Q969H4); assay: Fluorescence lifetime imaging microscopy (FLIM); conditions: FIG. 13, FLIM
T2 construct: expressed in transfected cells
T2 sequence (Q969H4 1-720): T1 sequence (Q969H4 1-720)
Method: FLIM experiments were carried out using a Leica TCP SP5 inverted advanced confocal microscope system with internal photomultiplier tube (PMT) detector for TCSPC (time-correlated single-photon counting). The sample was excited with a tunable femtosecond (fs) titanium-sapphire laser with repetition rate of 80 MHz and pulse width less then 80 fs (Spectral Physics, Mai Tai BB). The wavelength used for two-photon excitation was 930 nm and the fluorescence was detected through a 525±25 nm interference filter. Images were obtained with oil-immersion objective (numerical aperture NA=1.4), a line scan speed of 400 Hz, with image size of 512×512 pixels. For FLIM analysis the pixels were reduced to 256×256. FLIM data was collected using Becker & Hickl SPC830 data and image acquisition card for TCSPC.

IC50 [2]: > 100 µM
IC50 [3]: > 100 µM
membrane colocalisation of CNKSR1 and mutant-KRas at the plasma membrane [4]: blocking
total mutant KRas protein in the cell [4]: lower
direct binding of CNKSR1 to mut-KRAS in cells [5]: inhibit
SMILES: CCOC(=O)Cc1nn(Cc2nc(-c3ccc(C)cc3)cs2)c(=O)c2ccccc12 [Compound 7]
IC50 [1]: > 100 µM
